Experimental data as given in patent publication US5206239A, “Pyrroloazepine derivatives” (Suntory Limited, priority 1990, dated 1993).
Where two headings read alike, the source gives them in different places.

How the values were obtained:
α1 = assay: Anti-α1 action: inhibition of norepinephrine-induced tonic contraction of isolated guinea pig thoracic aorta; set-up: species or system guinea pig (Hartley, male); details: tonic contraction induced by 10^-5 M norepinephrine = 100%
Protocol: (§1) With respect to the compounds of the present invention, their anti-α1 action and anti-serotonin action were investigated by the testing methods which will be described below.
The thoracic aorta of each Hartley male guinea pig (body weight: 300-500 g) was excised. […] Taking the tonic contraction induced by 10^-5 M norepinephrine (NE) as 100%, the percent contractions upon addition of each test drug at 10^-8 and 10^-7 M were determined as anti-α1 action.

[1] = Anti-serotonin action (anti-5-HT action): inhibition of serotonin-induced phasic contraction of isolated guinea pig superior mesenteric artery; set-up: species or system guinea pig (Hartley, male); details: phasic contraction induced by 10^-5 M serotonin = 100%, read-out: Anti 5-HT action (percent contraction, % of Control); for remaining activity at 1 µM: 10^-6 M test drug; for remaining activity at 0.1 µM: 10^-7 M test drug
Protocol: as §1
Taking the phasic contraction induced by 10^-5 M serotonin as 100%, the percent contractions in the presence of each test drug at 10^-7 and 10^-6 M were determined as anti-5-HT action.

SMILES | Anti α1 action (percent contraction, % of Control) (α1; 10^-7 M test drug, 0.1 µM) | Anti α1 action (percent contraction, % of Control) (α1; 10^-8 M test drug, 0.01 µM) | remaining activity at 1 µM [1] [%] | remaining activity at 0.1 µM [1] [%] | remaining activity at 1 µM ([1]; guinea pig) [%] | remaining activity at 0.1 µM ([1]; guinea pig) [%]
CN1CCC(=NO)c2ccn(CCCCN3CCC(Oc4ccc(F)cc4)CC3)c2C1=O [Compound No. 84, 1-[4-[4-(4-Fluorophenoxy)piperidin-1-yl]butyl]-4-hydroxyimino-7-methyl-6,7-dihydropyrrolo[2,3-c]-azepin-8(1H,5H)-one] | 67.0 % of Control | 86.5 % of Control | 3.8 | 60 | – | –
CN1CCC(=O)c2ccn(CCCCN3CCC(C(O)(c4ccc(F)cc4)c4ccc(F)cc4)CC3)c2C1=O [Compound No. 54, 1-[4-[4-[Bis(4-fluorophenyl)hydroxymethyl]-piperidin-1-yl]butyl]-7-methyl-6,7-dihydropyrrolo[2,3-c]azepine-4,8(1H,5H)-dione] | 26.0 % of Control | 90.4 % of Control | 14.7 | 62.9 | – | –
CN1CCC(=NO)c2ccn(CCCCN3CCC(C(=O)c4ccc(F)cc4)CC3)c2C1=O.Cc1ccc(S(=O)(=O)O)cc1 [Compound No. 62, 1-[4-[4-(4-fluorobenzoyl)piperidin-1-yl]butyl]-4-hydroxyimino-7-methyl-6,7-dihydropyrrolo[2,3-c]azepin-8(1H,5H)-one p-toluenesulfonate] | 17.1 % of Control | 26.8 % of Control | – | – | 8.2 | 47.4
CCN1CCC(=NO)c2ccn(CCCCN3CCC(C(=O)c4ccc(F)cc4)CC3)c2C1=O [Compound No. 65, 7-ethyl-1-[4-[4-(4-fluorobenzoyl)-piperidin-1-yl]butyl]-4-hydroxyimino-6,7-dihydro-pyrrolo[2,3-c]azepin-8-(1H,5H)-one] | 9.9 % of Control | 19.5 % of Control | 3.6 | 19.9 | – | –
CN1CCC(=O)c2ccn(CCCCN3CCC(C(=O)c4ccc(F)cc4)CC3)c2C1=O [Compound No. 60, 1-[4-[4-(4-fluorobenzoyl)piperidin-1-yl]butyl]-7-methyl-6,7-dihydropyrrolo[2,3-c]azepine-4,8(1H,5H)-dione] | 20.5 % of Control | 43.9 % of Control | – | – | 11.8 | 62.9
O=C(c1ccc(F)cc1)C1CCN(CCCCn2ccc3c2C(=O)N(Cc2ccccc2)CCC3=NO)CC1 [Compound No. 66] | 10.4 % of Control | 19.3 % of Control | 6.9 | 77.6 | – | –
CCCN1CCC(=NO)c2ccn(CCCCN3CCC(C(=O)c4ccc(F)cc4)CC3)c2C1=O [Compound No. 75, 1-[4-[4-(4-Fluorobenzoyl)piperidin-1-yl]butyl]-4-hydroxyimino-7-propyl-6,7-dihydropyrrolo[2,3-c]-azepin-8(1H,5H)-one] | 17.9 % of Control | 37.0 % of Control | 8.2 | 12.9 | – | –
CN1CCC(=NO)c2ccn(CCCCN3CCC(c4ccccc4)CC3)c2C1=O [Compound No. 51, 4-hydroxyimino-7-methyl-1-[4-(4-phenylpiperidin-1-yl)butyl]-6,7-dihydropyrrolo-[2,3-c]azepin-8(1H,5H)-one] | 30.8 % of Control | 74.9 % of Control | 54.4 | 84.4 | – | –
CC(=O)ON=C1CCN(C)C(=O)c2c1ccn2CCCCN1CCC(C(=O)c2ccc(F)cc2)CC1 [Compound No. 91, 4-acetoxyimino-1-[4-[4-(4-fluorobenzoyl)piperidin-1-yl)butyl]-7-methyl-6,7-dihydropyrrolo[2,3-c]azepin-8(1H,5H)-one] | 35.5 % of Control | 58.2 % of Control | 10.3 | 16.1 | – | –
O=C1CCN(Cc2ccccc2)C(=O)c2c1ccn2CCCCN1CCC(c2ccccc2)CC1 [Compound No. 48, 7-Benzyl-1-[4-(4-phenylpiperidin-1-yl)butyl]-6,7-dihydropyrrolo[2,3-c]azepine-4,8(1H,5H)-dione] | 37.7 % of Control | 77.4 % of Control | 49 | 88 | – | –
CN1CCC(=NO)c2ccn(CCCCN3CCC(C(=O)c4ccc(F)cc4)CC3)c2C1=O [Compound No. 61, 1-[4-[4-(4-fluorobenzoyl)piperidin-1-yl]butyl]-4-hydroxyimino-7-methyl-6,7-dihydropyrrolo[2,3-c]azepin-8-(1H,5H)-one] | 21.4 % of Control | 44.7 % of Control | 4.1 | 12.1 | – | –
CN1CCC(=NOC(=O)c2ccccc2)c2ccn(CCCCN3CCC(C(=O)c4ccc(F)cc4)CC3)c2C1=O [Compound No. 92, 4-benzoyloxyimino-1-[4-[4-(4-fluorobenzoylpiperidin)-1-yl]butyl]-7-methyl-6,7-dihydropyrrolo[2,3-c]azepin-8(1H,5H)-one] | 21.5 % of Control | 49.3 % of Control | 12.5 | 48.5 | – | –
O=C1CCNC(=O)c2c1ccn2CCCCN1CCC(C(=O)c2ccc(F)cc2)CC1 [Compound No. 81, 1-[4-[4-(4-Fluorobenzoyl)piperidin-1-yl]butyl]-6,7-dihydropyrrolo[2,3-c]azepine-4,8(1H,5H)-dione] | 28.9 % of Control | 57.5 % of Control | 14.3 | 57.1 | – | –
